System: opioid-dependent participants
Experiment: Time to resumption of opioid substitution treatment (OST) and opiate withdrawal scales
Format: in vivo, human
Method: Three cohorts of nine (9) subjects (6 administered noribogaine and 3 administered placebo in each cohort) were evaluated for tolerability, pharmacokinetics, and efficacy. Cohort 1 received a single dose of 60 mg noribogaine or placebo. Cohort 2 received a single dose of 120 mg noribogaine or placebo. Cohort 3 received a single dose of 180 mg noribogaine or placebo. […] Headaches were frequent in the placebo and 60 mg noribogaine treatment groups, but were attenuated in the 120 mg and 180 mg dose groups.
Patients were evaluated based on the Clinical Opiate Withdrawal Scale (COWS), Subjective Opiate Withdrawal Scale (SOWS), and Objective Opiate Withdrawal Scale (OOWS) scoring systems over the period of time between administration of noribogaine (or placebo) until resumption of OST. These scales are outlined in Guidelines for the Psychosocially Assisted Pharmacological Treatment of Opioid Dependence, World Health Organization, Geneva (2009), Annex 10, which is incorporated herein by reference in its entirety. The scales measure the intensity of withdrawal symptoms, based on clinical, subjective, and objective indicia.

SMILES: CC[C@H]1CC2C[C@H]3c4[nH]c5ccc(O)cc5c4CCN(C2)C13 [noribogaine]
- Withdrawal symptoms (COWS, OOWS, SOWS, first six hours) (120 mg): generally experienced fewer withdrawal symptoms than the other patients
- Average time to resumption of opioids (single 120 mg dose): greater than 20 hours

Reference: patent US20150258107A1, “METHODS AND COMPOSITIONS FOR TREATING DEPRESSION” (DemeRx, Inc., priority 2014, published 2015)
